According to ChEMBL document CHEMBL1132653, “Substitution at the F-ring N-imide of the indolocarbazole antitumor drug NB-506 increases the cytotoxicity, DNA binding, and topoisomerase I inhibition activities” (J Med Chem, 1999):
pIC50: −log10 of the molar value.

Tests used:
[1] = The compound was tested for Binding constant against DNA; assay type: ADME
P388 = assay: Cytotoxicity against murine leukemia cell line (P388); assay type: functional, cell-based; details: Mus musculus
HCT-116 = assay: Cytotoxicity against human colon cancer cells (HCT116); assay type: functional, cell-based
[2] = The compound was tested for free energy change at binding to DNA; assay type: ADME
DLD-1 = assay: Cytotoxicity against human colon cancer cells (DLD-1); assay type: functional, cell-based
MKN-45 = assay: Cytotoxicity against human gastric cancer cells (MKN-45); assay type: functional, cell-based; details: MKN-45, Stomach

Row | K/10e4 [1] [M⁻¹] | -Delta G obs [2] [kcal/mol] | Structure (SMILES) | pIC50 (P388) | pIC50 (HCT-116) | pIC50 (DLD-1) | pIC50 (MKN-45)
1 | 2.64 | 5.91 | O=CNN1C(=O)c2c(c3c4cccc(O)c4n(C4OC(CO)C(O)C(O)C4O)c3c3[nH]c4c(O)cccc4c23)C1=O (centres undefined) | 7.21 | 6.92 | 5.68 | 6.41
2 | 8.19 | 6.56 | O=C1c2c(c3c4cccc(O)c4n(C4OC(CO)C(O)C(O)C4O)c3c3[nH]c4c(O)cccc4c23)C(=O)N1NC(CO)CO (centres undefined) |  | 7.49 |  | 
